# Like-named read-outs stand apart in the source and are kept apart here.
# Test system: HIV-1 Env-pseudoviruses (208-strain panel)
# Test: microbe, parasite or virus in culture
# Type: cell-based
# Settings: Human immunodeficiency virus 1, TZM-bl, read-out: IC50
# Description: Neutralization was measured using single-round-of-infection HIV-1 Env-pseudoviruses and TZM-bl target cells (ARP Cat No. #8129)[44],[45]. Compounds were prepared at 400 μM with 4% DMSO (dimethyl sulfoxide) in PBS (phosphate-buffered saline) and diluted 20 times as the starting concentration for serial dilution in the neutralization assays. […] After incubation at 37 °C for 2 days, infection of target cells was measured by luciferase activity. Neutralization curves were fit by nonlinear regression using a five-parameter hill slope equation[45].
smiles,measurement,setting,value
COc1cnc(-c2csc(C(=O)NCCO)n2)c2[nH]cc(C(=O)C(=O)N3CCC(=C(C#N)c4ccccc4)CC3)c12 [BMS-818251],IC50,"CNE5, clade AE",465 nM
same,IC50,"CNE7, clade BC",0.4 nM
same,IC50,"CNE8, clade AE",2680 nM
same,IC50,CNE10 (Clade B),0.1 nM
same,IC50,"CNE12, clade B",2 nM
same,IC50,"CNE14, clade B",1120 nM
same,IC50,"CNE15, clade BC",0.1 nM
same,IC50,"CNE19, clade BC",0.1 nM
same,IC50,CNE20 (Clade BC),6 nM
same,IC50,"CNE21, clade BC",0.3 nM
same,IC50,"CNE30, clade C",0.2 nM
same,IC50,"CNE31, clade C",1 nM
same,IC50,"CNE40, clade BC",1 nM
same,IC50,"CNE55, clade AE",282 nM
same,IC50,CNE56 (Clade AE),797 nM
same,IC50,"CNE57, clade B",0.3 nM
same,IC50,"CNE58, clade C",0.2 nM
same,IC50,"CNE59, clade AE",506 nM
same,IC50,"Ce1176.A3, clade C",0.9 nM
same,IC50,DJ263.8 (Clade AG),0.2 nM
same,IC50,"DU123.06, clade C",0.3 nM
same,IC50,"DU151.02, clade C",0.2 nM
same,IC50,DU156.12 (Clade C),0.2 nM
same,IC50,"DU172.17, clade C",0.1 nM
same,IC50,"DU422.01, clade C",0.7 nM
same,IC50,"HO86.8, clade B",4 nM
same,IC50,"HT593.1, clade B",0.1 nM
same,IC50,"JRFL.JB, clade B",0.1 nM
same,IC50,KER2008.12 (Clade A),15 nM
same,IC50,"KER2018.11, clade A",0.3 nM
same,IC50,"KNH1209.18, clade A",0.4 nM
same,IC50,"M02138, clade AE",28 nM
same,IC50,MB201.A1 (Clade A),9 nM
same,IC50,"MB539.2B7, clade A",2 nM
same,IC50,"MI369.A5, clade A",0.3 nM
same,IC50,"MN.3, clade B",0.6 nM
same,IC50,"MS208.A1, clade A",0.3 nM
same,IC50,"MW965.26, clade C",6 nM
same,IC50,NKU3006.ec1 (Clade D),0.2 nM
same,IC50,P0402.c2.11 (Clade G),0.2 nM
same,IC50,"P1981.C5.3, clade G",0.5 nM
same,IC50,PVO.04 (Clade B),0.4 nM
same,IC50,"Q23.17, clade A",0.5 nM
same,IC50,"Q168.a2, clade AD",3 nM
same,IC50,"Q259.17, clade A",7 nM
same,IC50,"Q461.e2, clade AD",0.3 nM
same,IC50,"Q769.d22, clade A",1 nM
same,IC50,"Q769.h5, clade A",2 nM
same,IC50,"Q842.d12, clade A",0.4 nM
same,IC50,"QH209.14M.A2, clade A",60 nM
same,IC50,"QH0515.01, clade B",31 nM
same,IC50,"QH0692.42, clade B",0.7 nM
same,IC50,"R1166.c1, clade AE",> 20000 nM
same,IC50,"R2184.c4, clade AE",2040 nM
same,IC50,R3265.c6 (Clade AE),122 nM
same,IC50,REJO.67 (Clade B),590 nM
same,IC50,"RHPA.7, clade B",0.5 nM
same,IC50,"RW020.2, clade A",0.7 nM
same,IC50,"SF162.LS, clade B",0.1 nM
same,IC50,"SO18.18, clade C",0.2 nM
same,IC50,"SS1196.01, clade B",579 nM
same,IC50,"T33-7, clade AG",252 nM
same,IC50,"T250-4, clade AG",0.4 nM
same,IC50,"T251-18, clade AG",0.6 nM
same,IC50,T253-11 (Clade AG),0.1 nM
same,IC50,"T255-34, clade AG",2 nM
same,IC50,"T257-31, clade AG",1 nM
same,IC50,"T266-60, clade AG",42 nM
same,IC50,"T278-50, clade AG",0.1 nM
same,IC50,T280-5 (Clade AG),0.4 nM
same,IC50,"TH023.6, clade AE",> 20000 nM
same,IC50,"TH966.8, clade AE",923 nM
same,IC50,"TH976.17, clade AE",1280 nM
same,IC50,"THRO.18, clade B",0.2 nM
same,IC50,"TRJO.58, clade B",0.1 nM
same,IC50,"TRO.11, clade B",127 nM
same,IC50,"TV1.29, clade C",1 nM
same,IC50,"TZA125.17, clade C",1 nM
same,IC50,"TZBD.02, clade C",0.3 nM
same,IC50,"UG021.16, clade D",0.2 nM
same,IC50,"UG024.2, clade D",> 20000 nM
same,IC50,"UG037.8, clade A",10 nM
same,IC50,"WITO.33, clade B",0.8 nM
same,IC50,"X1254.c3, clade G",0.2 nM
same,IC50,"X1632.S2.B10, clade G",0.3 nM
same,IC50,"X2088.c9, clade G",0.3 nM
same,IC50,"X2131.C1.B5, clade G",1 nM
same,IC50,"X2278.C2.B6, clade B",440 nM
same,IC50,"YU2.DG, clade B",0.5 nM
same,IC50,"ZA012.29, clade C",0.5 nM
same,IC50,"ZM53.12, clade C",0.4 nM
same,IC50,"ZM55.28a, clade C",0.3 nM
same,IC50,ZM106.9 (Clade C),2 nM
same,IC50,"ZM109.4, clade C",0.1 nM
same,IC50,"ZM135.10a, clade C",153 nM
same,IC50,"ZM176.66, clade C",1 nM
same,IC50,"ZM197.7, clade C",0.2 nM
same,IC50,"ZM214.15, clade C",0.2 nM
same,IC50,"ZM215.8, clade C",0.1 nM
same,IC50,"ZM233.6, clade C",0.1 nM
same,IC50,"ZM249.1, clade C",0.4 nM
same,IC50,"[…], clade C",0.1 nM
same,IC50,"[…], clade G",0.6 nM

# Source: article PMC6318274, “Lattice engineering enables definition of molecular features allowing for potent small-molecule inhibition of HIV-1 entry” (Nature Communications, 2019)
